“Also recorded” adds a separate entry of the source.
Key:
[1] = tested on: spontaneously hypertensive rats; experiment: Effect on arterial pressure in spontaneously hypertensive rats, single administration; type: in vivo; conditions: for hypotensive effect by the 6th hour, comparison in words: compound of the present invention vs Nifedipine
white nondescript mice = experiment: in vivo; conditions: for toxicity in words: conclusion from Table 2
Procedure: (§1) The mean lethal dose (LD50) was determined by the Litchfield and Wilcoxon method.

in vivo = conditions: mouse, in vivo, ip
Procedure: as §1

[2] = literature, cited from earlier work
[3] = tested on: spontaneously hypertensive rats; experiment: Effect on heart rate in spontaneously hypertensive rats; type: in vivo; conditions: for effect on heart rate: 10 and 20 mg/kg, peroral, SHR
Procedure: (§2) In experiments on spontaneously hypertensive rats the compound according to the present invention upon a single administration (10 mg/kg in stomach) caused reduction of systolic arterial pressure. The maximum hypotensive effect (by 21 %) was observed by the 6-th hour after administration of the compound, after 24 hours the pressure was reduced by 17 % as compared to the initial value. A […] administration of the compound for 5 days in the dose of 10 mg/kg into the stomach caused the maximum reduction of the pressure (by 22 %) on the 6-th day, i.e., one day after discontinuation of administration of the compound. A reduced pressure was observed on the 3-rd day (by 10 %) after discontinuation of the administration.

Solubility = type: physicochemical
[4] = Stability by UV spectrum (solid in the light; alcoholic solution)
[5] = tested on: spontaneously hypertensive rats; experiment: Effect on systolic arterial pressure in spontaneously hypertensive rats, administration for 5 days; type: in vivo; conditions: 10 mg/kg into the stomach for 5 days
Procedure: as §2

[6] = 10 mg/kg, single administration in stomach

Row | Structure (SMILES) | Hypotensive effect, %, after 48 hrs ([1]; 10 mg/kg) | Hypotensive effect, %, after 1 hr [1, 6] | Hypotensive effect, %, after 6 hrs [1, 6] | Hypotensive effect, %, after 24 hrs [1, 6] | toxicity in words (white nondescript mice) | LD50 at 240 h (in vivo) | hypotensive effect by the 6th hour, comparison in words [1] | hypotensive effect / systolic pressure 24 hours after administration, in words [1] | effect on heart rate [3] | further results
1 | COC(=O)C1=C(C)NC(C)=C(C(=O)OC)C1c1ccco1 [Analog, 2,6-dimethyl-3,5-dimethoxycarbonyl-4-(2'-furyl)-1,4-dihydropyridine] | 0% | 12% | 7% | 0% | low toxicity | 2900 mg/kg | – | – | – | hypotensive properties, comparison in words ([1]; vs the compound of the present invention): subtantially lower than those of the compound of the present invention; hypotensive activity compared with Nifedipine ([2]; vs Nifedipine): considerably lower than that of Nifedipine
2 | COC(=O)C1=C(C)NC(C)=C(C(=O)OC)C1c1ccccc1[N+](=O)[O-] [Nifedipine, 2,6-dimethyl-3,5-dimethoxycarbonyl-4-(O-nitrophenyl)-1,4-dihydropyridine] | 0% | 34% | 23% | 0% | – | – | same hypotensive effect | systolic pressure returned to the initial level | tachycardia | hypotensive effect by the 1st hour, comparison in words ([1]; 1 hour after administration, vs the compound of the present invention): superior to the compound of the present invention; hypotensive and coronarodilating effects [2]: hypotensive and coronarodilating effects
3 | COC(=O)C1=C(C)NC(C)=C(C(=O)OC)C1c1ccc([Si](C)(C)C)o1 [Of this invention, 2,6-dimethyl-3,5-dimethoxycarbonyl-4-(5'-trimethylsilyl-2'-furyl)-1,4-dihydropyridine] | – | 13% | 21% | 17% | low toxicity as compared to Nifedipine | > 1000 mg/kg | same hypotensive effect | still produced the hypotensive effect | either lowers the heart rate or does not change it | solubility in methanol, ethanol, chloroform, acetone (Solubility; methanol, ethanol, chloroform, acetone): well soluble; solubility in water (Solubility; water): substantially insoluble; period during which UV spectrum remained unchanged in alcoholic solution ([4]; alcoholic solution, 5×10^-5 mol): 6 months; stability in the crystalline state and as solutions ([4]; crystalline state and solutions): stable; UV spectrum upon storage of the solid in the light ([4]; solid, in the light, within a year's period): does not change its UV spectrum within a year's period; Hypotensive effect, %, after 6 hrs ([1]; 20 mg/kg): 30%; Hypotensive effect, %, after 24 hrs ([1]; 20 mg/kg): 39%; Hypotensive effect, %, after 48 hrs ([1]; 20 mg/kg): 28%; duration of hypotensive effect, in words ([1]; vs Nifedipine and/or analog, listed as compound according to the present invention): superior over Nifedipine as regards the duration of its effect; also recorded: more lasting hypotensive effect than the analog and Nifedipine; effect on heart rate, comparison in words ([3]; vs Nifedipine): less pronounced effect on the heart rate; reduced pressure on the 3rd day after discontinuation ([5]; 3rd day after discontinuation): 10%; maximum reduction of the pressure ([5]; on the 6th day (one day after discontinuation)): 22%; death of the mice (white nondescript mice; doses of up to 1,000 mg/kg, intraperitoneal): did not cause death of the mice
